Data as given in patent publication EP0497314A1, “Use of azapirones in attention deficit hyperactivity disorder” (Bristol-Myers Squibb Company, priority 1991, dated 1992).
Where a name gives a salt, the structure may show the parent alone. Marks after values point to notes of the source that are not given here.

Experiments:
[1] = system: fronto-occipital cortex of the cat; assay: Quantitative EEG, fronto-occipital cat cortex, subcutaneous administration; assay type: in vivo, cats; conditions: for group percent change in electrical energy from pre-drug control, Δ band / mean change ± S.E. in electrical energy from pre-drug control, Δ band / group percent change in electrical energy from pre-drug control, α band / mean change ± S.E. in electrical energy from pre-drug control, α band / group percent change in electrical energy from pre-drug control, β band / mean change ± S.E. in electrical energy from pre-drug control, β band / group percent change in electrical energy from pre-drug control, γ band / mean change ± S.E. in electrical energy from pre-drug control, γ band / group percent change in electrical energy from pre-drug control, θ band / mean change ± S.E. in electrical energy from pre-drug control, θ band: fronto-occipital cat cortex; for group percent change in electrical energy from pre-drug control, Δ band / mean change ± S.E. in electrical energy from pre-drug control, Δ band: Δ = 0.05-35 Hz; for group percent change in electrical energy from pre-drug control, α band / mean change ± S.E. in electrical energy from pre-drug control, α band: α= 7-13 Hz; for group percent change in electrical energy from pre-drug control, β band / mean change ± S.E. in electrical energy from pre-drug control, β band: β= 13-25 Hz; for group percent change in electrical energy from pre-drug control, γ band / mean change ± S.E. in electrical energy from pre-drug control, γ band: γ= 25-40 Hz; for group percent change in electrical energy from pre-drug control, θ band / mean change ± S.E. in electrical energy from pre-drug control, θ band: θ= 3.5-7.0 Hz
From the text: This unique combination of activity may render buspirone useful in the treatment of childhood hyperkinesis which has been reported to respond to both selected phenothiazine and stimulant drugs. • (b) Adult mongrel female cats weighing 2.5-4.0 kg were implanted with EEG recording electrodes. Recording sites were as follows: fronto-occipital cortex, basal amygdala and ventral hippocampus.
Animals were individually held in canvas feline restraining bags for EEG recording. The EEG of each brain area was recorded on a separate channel. The instrumentation filtered each channel of EEG and analog data into five distinct frequency bands: Δ=0.5-3.5 Hz, ϑ=3.5-7.0 Hz, α=7-13 Hz, β=13-25 Hz and γ=25-40 Hz. The EEG analyzer then integrated the filtered waveforms and sent pulses to an associated computer at a rate proportional to the electrical energy of each band. Data collecting procedures were essentially the same as reported in Example 1. However, groups of six animals each were used and all drugs were administered subcutaneously in saline solution as their respective salts, but all dosages were calculated as the free base. Recording was started 30 minutes after injection to insure adequate drug absorption for peak activity.
Drug-induced EEG changes were determined by comparing the post-treatment data to the pre-treatment control in the same animal. Statistical analysis was performed on change from control, in instrument counts, using multiple Student-t-paired-comparison test with P≦0.05 (Table 2). However, for clarity data are also presented as percent change from control (Figures 3, 4 and 5).
The data in Table 2 are drug-induced changes resulting from the minimum and higher doses of each compound required to elicit the EEG profile characteristic of that particular drug.

rabbit cortex = assay: Quantitative EEG, rabbit cortex, intravenous administration; assay type: in vivo, rabbits; conditions: for group percent change in electrical energy from pre-drug control, Δ band / mean change ± S.E. in electrical energy from pre-drug control, Δ band / group percent change in electrical energy from pre-drug control, α band / mean change ± S.E. in electrical energy from pre-drug control, α band / group percent change in electrical energy from pre-drug control, β band / mean change ± S.E. in electrical energy from pre-drug control, β band / group percent change in electrical energy from pre-drug control, γ band / mean change ± S.E. in electrical energy from pre-drug control, γ band / group percent change in electrical energy from pre-drug control, θ band / mean change ± S.E. in electrical energy from pre-drug control, θ band: rabbit cortex; for group percent change in electrical energy from pre-drug control, Δ band / mean change ± S.E. in electrical energy from pre-drug control, Δ band: Δ = 0.5-3.5 Hz; for group percent change in electrical energy from pre-drug control, α band / mean change ± S.E. in electrical energy from pre-drug control, α band: α= 7-13 Hz; for group percent change in electrical energy from pre-drug control, β band / mean change ± S.E. in electrical energy from pre-drug control, β band: β= 13-25 Hz; for group percent change in electrical energy from pre-drug control, γ band / mean change ± S.E. in electrical energy from pre-drug control, γ band: γ= 25-40 Hz; for group percent change in electrical energy from pre-drug control, θ band / mean change ± S.E. in electrical energy from pre-drug control, θ band: θ= 3.5-7.0 Hz
Procedure: At least 2 weeks were allowed for recovery before beginning experimentation.
Groups of four animals each were individually restrained and connected to an EEG amplifier and frequency analyzer. The EEG of each animal was recorded on a separate channel. The instrumentation filtered each channel of EEG analog data into five distinct frequency bands: Δ=0.5-3.5 Hz, ϑ=3.5-7.0 Hz, α=7-13 Hz, β=13-25 Hz and γ=25-40 Hz. The EEG analyzer then integrated the filtered waveforms and sent pulses to an associated computer at a rate proportional to the electrical energy of each band. Thus, one computer print-out provided a cortical EEG profile for the entire group of four rabbits.
Data from a one-hour recording period were collected in four 15-minute periods, which provided additional information concerning both onset and time of peak effect of drug activity. However, in this report only the mean activity of the four data collection periods was considered since onset of drug activity was immediate and duration of action was at least one hour for all drugs studied. Drug-induced EEG changes were determined by comparing the post-treatment print-out to the pretreatment control in the same animal and statistical analysis was performed on change from control, in counts, using multiple Student-t paired-comparison tests with p≦0.05 (Table 1). However, for clarity data are also presented as percent change from control (Figures 1 and 2).
All drugs were administered intravenously in saline solution as their respective salts and all dosage calculations were based on the free base. Recording was started immediately after injection and animals were not used more often than once per week. Initial doses were reduced geometrically until a no-effect dose was determined for each drug. However, only the "no-effect" data and the data generated from the next higher dose are presented in this report since the shape of the EEG profile is not dose-related, as opposed to the magnitude of the response which is dose-related.

SMILES: COC(=O)C(c1ccccc1)C1CCCCN1 (stereo not drawn) [Methylphenidate HCl, methylphenidate]
- minimal effective dose ([1]; Felis catus, sc, read-out: the minimum dose required to produce the EEG profile characteristic of that particular drug): 0.25 mg/kg
- relative potency by comparing minimal doses required to elicit EEG profiles ([1]; cat cortex EEG, s.c.): equal potency
- the no-effect dose ([1]; fronto-occipital cat cortex EEG, dose of free base): 0.125† mg/kg, s.c.
- group percent change in electrical energy from pre-drug control, Δ band ([1]; 0.125 mg/kg free base s.c.): -22%
- mean change ± S.E. in electrical energy from pre-drug control, Δ band ([1]; 0.125 mg/kg free base s.c.): -44 ± 18 instrument counts
- group percent change in electrical energy from pre-drug control, Δ band ([1]; 0.25 mg/kg free base s.c.): -14%
- mean change ± S.E. in electrical energy from pre-drug control, Δ band ([1]; 0.25 mg/kg free base s.c.): -31 ± 18 instrument counts
- group percent change in electrical energy from pre-drug control, Δ band ([1]; 1.0 mg/kg free base s.c.): -2%
- mean change ± S.E. in electrical energy from pre-drug control, Δ band ([1]; 1.0 mg/kg free base s.c.): -4 ± 30 instrument counts
- group percent change in electrical energy from pre-drug control, Δ band ([1]; 4.0 mg/kg free base s.c.): -8%
- mean change ± S.E. in electrical energy from pre-drug control, Δ band ([1]; 4.0 mg/kg free base s.c.): -16 ± 45 instrument counts
- group percent change in electrical energy from pre-drug control, α band ([1]; 0.125 mg/kg free base s.c.): -18%
- mean change ± S.E. in electrical energy from pre-drug control, α band ([1]; 0.125 mg/kg free base s.c.): -24 ± 10 instrument counts
- group percent change in electrical energy from pre-drug control, α band ([1]; 0.25 mg/kg free base s.c.): -31%
- mean change ± S.E. in electrical energy from pre-drug control, α band ([1]; 0.25 mg/kg free base s.c.): -39 ± 12 instrument counts
- group percent change in electrical energy from pre-drug control, α band ([1]; 1.0 mg/kg free base s.c.): -46%
- mean change ± S.E. in electrical energy from pre-drug control, α band ([1]; 1.0 mg/kg free base s.c.): -52 ± 14 instrument counts
- group percent change in electrical energy from pre-drug control, α band ([1]; 4.0 mg/kg free base s.c.): -51%
- mean change ± S.E. in electrical energy from pre-drug control, α band ([1]; 4.0 mg/kg free base s.c.): -63 ± 11 instrument counts
- group percent change in electrical energy from pre-drug control, β band ([1]; 0.125 mg/kg free base s.c.): -2%
- mean change ± S.E. in electrical energy from pre-drug control, β band ([1]; 0.125 mg/kg free base s.c.): -3 ± 5 instrument counts
- group percent change in electrical energy from pre-drug control, β band ([1]; 0.25 mg/kg free base s.c.): -9%
- mean change ± S.E. in electrical energy from pre-drug control, β band ([1]; 0.25 mg/kg free base s.c.): -11 ± 4 instrument counts
- group percent change in electrical energy from pre-drug control, β band ([1]; 1.0 mg/kg free base s.c.): -19%
- mean change ± S.E. in electrical energy from pre-drug control, β band ([1]; 1.0 mg/kg free base s.c.): -20 ± 5 instrument counts
- group percent change in electrical energy from pre-drug control, β band ([1]; 4.0 mg/kg free base s.c.): -12%
- mean change ± S.E. in electrical energy from pre-drug control, β band ([1]; 4.0 mg/kg free base s.c.): -14 ± 4 instrument counts
- group percent change in electrical energy from pre-drug control, γ band ([1]; 0.125 mg/kg free base s.c.): +7%
- mean change ± S.E. in electrical energy from pre-drug control, γ band ([1]; 0.125 mg/kg free base s.c.): +6 ± 2 instrument counts
- group percent change in electrical energy from pre-drug control, γ band ([1]; 0.25 mg/kg free base s.c.): +9%
- mean change ± S.E. in electrical energy from pre-drug control, γ band ([1]; 0.25 mg/kg free base s.c.): +7 ± 2 instrument counts
- group percent change in electrical energy from pre-drug control, γ band ([1]; 1.0 mg/kg free base s.c.): +13%
- mean change ± S.E. in electrical energy from pre-drug control, γ band ([1]; 1.0 mg/kg free base s.c.): +10 ± 3 instrument counts
- group percent change in electrical energy from pre-drug control, γ band ([1]; 4.0 mg/kg free base s.c.): +35%
- mean change ± S.E. in electrical energy from pre-drug control, γ band ([1]; 4.0 mg/kg free base s.c.): +25 ± 5 instrument counts
- group percent change in electrical energy from pre-drug control, θ band ([1]; 0.125 mg/kg free base s.c.): -20%
- mean change ± S.E. in electrical energy from pre-drug control, θ band ([1]; 0.125 mg/kg free base s.c.): -31 ± 11 instrument counts
- group percent change in electrical energy from pre-drug control, θ band ([1]; 0.25 mg/kg free base s.c.): -27%
- mean change ± S.E. in electrical energy from pre-drug control, θ band ([1]; 0.25 mg/kg free base s.c.): -38 ± 16 instrument counts
- group percent change in electrical energy from pre-drug control, θ band ([1]; 1.0 mg/kg free base s.c.): -34%
- mean change ± S.E. in electrical energy from pre-drug control, θ band ([1]; 1.0 mg/kg free base s.c.): -45 ± 17 instrument counts
- group percent change in electrical energy from pre-drug control, θ band ([1]; 4.0 mg/kg free base s.c.): -41%
- mean change ± S.E. in electrical energy from pre-drug control, θ band ([1]; 4.0 mg/kg free base s.c.): -56 ± 14 instrument counts
- minimal effective dose (rabbit cortex; Oryctolagus cuniculus, iv, read-out: the minimum dose required to produce the EEG profile characteristic of that particular drug): 0.125 mg/kg
- relative potency by comparing minimal doses required to elicit EEG profiles (rabbit cortex; rabbit cortex EEG, i.v.): approximately four times more potent than buspirone
- the no-effect dose (rabbit cortex; rabbit cortex EEG, dose of free base): 0.0625† mg/kg, i.v.
- group percent change in electrical energy from pre-drug control, Δ band (rabbit cortex; 0.0625 mg/kg free base i.v.): +3%
- mean change ± S.E. in electrical energy from pre-drug control, Δ band (rabbit cortex; 0.0625 mg/kg free base i.v.): +7 ± 19 instrument counts
- group percent change in electrical energy from pre-drug control, Δ band (rabbit cortex; 0.125 mg/kg free base i.v.): -36%
- mean change ± S.E. in electrical energy from pre-drug control, Δ band (rabbit cortex; 0.125 mg/kg free base i.v.): -120 ± 36 instrument counts
- group percent change in electrical energy from pre-drug control, α band (rabbit cortex; 0.0625 mg/kg free base i.v.): +6%
- mean change ± S.E. in electrical energy from pre-drug control, α band (rabbit cortex; 0.0625 mg/kg free base i.v.): +8 ± 10 instrument counts
- group percent change in electrical energy from pre-drug control, α band (rabbit cortex; 0.125 mg/kg free base i.v.): -23%
- mean change ± S.E. in electrical energy from pre-drug control, α band (rabbit cortex; 0.125 mg/kg free base i.v.): -47 ± 16 instrument counts
- group percent change in electrical energy from pre-drug control, β band (rabbit cortex; 0.0625 mg/kg free base i.v.): +4%
- mean change ± S.E. in electrical energy from pre-drug control, β band (rabbit cortex; 0.0625 mg/kg free base i.v.): +4 ± 6 instrument counts
- group percent change in electrical energy from pre-drug control, β band (rabbit cortex; 0.125 mg/kg free base i.v.): -22%
- mean change ± S.E. in electrical energy from pre-drug control, β band (rabbit cortex; 0.125 mg/kg free base i.v.): -35 ± 6 instrument counts
- group percent change in electrical energy from pre-drug control, γ band (rabbit cortex; 0.0625 mg/kg free base i.v.): -1%
- mean change ± S.E. in electrical energy from pre-drug control, γ band (rabbit cortex; 0.0625 mg/kg free base i.v.): -1 ± 2 instrument counts
- group percent change in electrical energy from pre-drug control, γ band (rabbit cortex; 0.125 mg/kg free base i.v.): -7%
- mean change ± S.E. in electrical energy from pre-drug control, γ band (rabbit cortex; 0.125 mg/kg free base i.v.): -9 ± 2 instrument counts
- group percent change in electrical energy from pre-drug control, θ band (rabbit cortex; 0.0625 mg/kg free base i.v.): +6%
- mean change ± S.E. in electrical energy from pre-drug control, θ band (rabbit cortex; 0.0625 mg/kg free base i.v.): +3 ± 9 instrument counts
- group percent change in electrical energy from pre-drug control, θ band (rabbit cortex; 0.125 mg/kg free base i.v.): -24%
- mean change ± S.E. in electrical energy from pre-drug control, θ band (rabbit cortex; 0.125 mg/kg free base i.v.): -60 ± 16 instrument counts
